Data taken from ChEMBL document CHEMBL3988442, “University of Dundee, Small-Polar-MMV Screening Library” (2021).

Tests used:
[1] = microbe, parasite or virus in culture; conditions: Mycobacterium tuberculosis, 96 h, read-out: pIC50 (converted)
[2] = microbe, parasite or virus in culture; conditions: Mycobacterium tuberculosis, 72 h, read-out: pIC50 (converted)

SMILES	IC50 [1]	IC50 [2]
O=C(Cn1ccc(C(F)(F)F)n1)Nc1ccccn1	> 501 µM	224 µM
OC1CCN(Cc2ccc3c(c2)CCC3)C1 (stereo not drawn)	> 501 µM	213 µM
CNC(=O)c1cccc(NCc2ccc(C#N)s2)n1	205 µM	180 µM
N#Cc1ccc(OCCCN2CCNC(=O)C2)cc1	290 µM	233 µM
CCNC(=O)c1ccn(-c2ccccc2)n1	232 µM	340 µM
NCCc1nc(C2CC2)cs1	103 µM	91.5 µM
CCN(C)C(=O)Nc1ccc(C(=O)OC)c(F)c1	> 501 µM	> 501 µM
Cc1cccc(NC(=O)CN(C)Cc2nnsc2Cl)n1	> 501 µM	246 µM
Cc1cc(C2CCC2)nc(N2CCNC(=O)C2)n1	44.3 µM	119 µM
CCC(N)C(=O)N1CCN(c2ccc(F)cc2Cl)CC1 (stereo not drawn)	266 µM	322 µM
CC1CCC(NC(=O)Cn2cnc(C#N)n2)CC1 (stereo not drawn)	98.1 µM	101 µM
Cc1ccc(OCC(=O)Nc2nnn(C)n2)cc1	> 501 µM	274 µM
NCC(NS(=O)(=O)CCc1cccs1)C1CC1 (stereo not drawn)	47.8 µM	167 µM
Cc1cc(-c2noc(C(C)N)n2)ccc1F (stereo not drawn)	> 501 µM	457 µM
Cc1cnc(C(=O)NCCSCc2ccco2)cn1	> 501 µM	> 501 µM
CNC(=O)CCSc1ccc2c(c1)OCCO2	165 µM	143 µM
CN(C)C(CN)c1cccc(F)c1 (stereo not drawn)	> 501 µM	> 501 µM
O=C(c1cc(C2CC2)on1)N1CCCN(C2CC2)CC1	> 501 µM	> 501 µM
COc1ccccc1C(O)CNc1cccc(C)n1 (stereo not drawn)	136 µM	> 501 µM
CN(C)c1cc(Cn2cnc3sccc3c2=O)ccn1	> 501 µM	> 501 µM
CC1Cc2ccccc2N1CCN (stereo not drawn)	204 µM	172 µM
CN(C)S(=O)(=O)c1cc2c(cc1Cl)OCCO2	> 501 µM	209 µM

SMILES	IC50 [1]	IC50 [2]
NCc1cccc(C(=O)NCc2ccco2)c1	> 501 µM	> 501 µM
NCc1cccc2cc[nH]c12	261 µM	245 µM
CCNc1ncc(C(=O)N2CCCCC2)s1	> 501 µM	377 µM
Cc1ccc(-c2noc(C(C)N)n2)cc1F (stereo not drawn)	327 µM	368 µM
CC(Nc1ccc(OC(F)F)cn1)c1ccncc1 (stereo not drawn)	246 µM	195 µM
COCc1nn(Cc2ccccc2Cl)c(=O)o1	393 µM	35.9 µM
O=C1CCCCN1Cn1cc(I)cn1	318 µM	251 µM
CCc1cccc2c1N(C(=O)CNC)CC2	> 501 µM	367 µM
COc1ccc(CCSc2nnc[nH]2)cc1	111 µM	142 µM
Cc1ncc(CN(C)CC(O)COCc2ccco2)s1 (stereo not drawn)	> 501 µM	> 501 µM
NC1CCCN(Cc2ccccc2)C1 (stereo not drawn)	> 501 µM	262 µM
COc1ccc(F)cc1C(=O)OCC(=O)NC1CC1	212 µM	105 µM
Cc1ccc(F)c(CN2CC[C@H](N)C2)c1	225 µM	213 µM
COc1ccc(C)cc1CCN	277 µM	272 µM
CNC(=O)NC(=O)CCN1CCN(S(C)(=O)=O)CC1	> 501 µM	245 µM
CS(=O)(=O)NCC1CCCN(c2ncc(Cl)cc2F)C1 (stereo not drawn)	> 501 µM	159 µM
COC(=O)NCC(=O)N(C)c1ccc2ccccc2c1	> 501 µM	129 µM
CC1CN(CCC(=O)NC(N)=O)CCO1 (stereo not drawn)	286 µM	80.3 µM
O=C(NCCOc1ncccc1Cl)c1cc(Cl)c[nH]1	287 µM	188 µM
Cc1nc(Cn2cc(S(=O)(=O)N(C)C)ccc2=O)cs1	> 501 µM	326 µM
NCCCc1ccccn1	> 501 µM	> 501 µM
O=C(Cn1cc(Br)cn1)Nc1ccc2c(c1)OCCO2	247 µM	220 µM

SMILES	IC50 [1]	IC50 [2]
O=C(NC1CCCOc2ccccc21)c1ccncc1 (stereo not drawn)	> 501 µM	> 501 µM
CN(C)S(=O)(=O)N1CCCC1c1ccccc1Br (stereo not drawn)	273 µM	206 µM
CCc1nc(CNC)cs1	236 µM	305 µM
O=C1CCN(Cc2cc(Br)cc3cccnc23)CCN1	> 501 µM	493 µM
O=C(c1cnsn1)N1CC=C(c2ccccc2)CC1	237 µM	35.1 µM
COc1cccc(C2=NN=C(NC3CC3)SC2)c1	111 µM	97.4 µM
c1nsnc1-c1nc(C2CCCO2)no1 (stereo not drawn)	> 501 µM	118 µM
CN(Cc1c(F)cccc1Cl)S(=O)(=O)N1CCOCC1	269 µM	270 µM
CN(Cc1ccco1)CC(O)COCc1cccs1 (stereo not drawn)	188 µM	235 µM
N#Cc1cccc(NCC(=O)NCc2ccco2)c1	108 µM	223 µM
CC(C)N(C)S(=O)(=O)N1CCc2sccc2C1C (stereo not drawn)	207 µM	150 µM
CN(Cc1ccco1)C(=O)CCc1ccc(C#N)cc1	77.4 µM	31.7 µM
COc1cccc(N2CCC(N)CC2)c1	213 µM	426 µM
NC(=O)CN1CCC(OCCCc2ccccc2)C1 (stereo not drawn)	369 µM	246 µM
CS(=O)(=O)NC(c1ccc(F)cc1)c1cccnc1 (stereo not drawn)	> 501 µM	338 µM
O=C(NCCC(O)C(F)(F)F)c1c(O)cc(F)cc1F (stereo not drawn)	244 µM	290 µM
NCCCOC1CCN(C(=O)c2ccc(Br)o2)CC1	> 501 µM	76.7 µM
NCc1cccc(OCc2ccccn2)c1	> 501 µM	187 µM
CN(C)C(=O)CN1CCCC1c1ccc(F)cc1 (stereo not drawn)	143 µM	96.3 µM
CCCn1cc(CNc2nc(C3CC3)no2)cn1	151 µM	125 µM
Cc1csc(N2CCCN(C(=O)c3cnsn3)CC2)n1	> 501 µM	284 µM
NS(=O)(=O)NCCCc1ccc(Br)cc1F	218 µM	151 µM

SMILES	IC50 [1]	IC50 [2]
CC(C(=O)NC1CC1)N1CCN(C)c2ccccc2C1 (stereo not drawn)	276 µM	248 µM
O=C(Cn1cnnn1)Nc1ccc(SC(F)F)cc1	290 µM	180 µM
COc1ccc(CCN)c(O)c1	435 µM	153 µM
Cc1cc(C(=O)NCC(CO)c2ccccc2)ns1 (stereo not drawn)	130 µM	103 µM
CCCS(=O)(=O)N(C)Cc1cccc(OCC)n1	> 501 µM	367 µM
CC(C)c1ccccc1OCC(O)CN(C)CCO (stereo not drawn)	257 µM	123 µM
C=C(C)COC(=O)c1ccc(-n2cncn2)cc1C	279 µM	182 µM
O=C(COc1ccccc1Cl)NCC(=O)c1ccco1	> 501 µM	342 µM
CCN(C1CC1)S(=O)(=O)c1ccc2c(c1)OCCO2	> 501 µM	162 µM
CC(C)COCC(O)Cn1nnc(-c2ccco2)n1 (stereo not drawn)	12.9 µM	88.9 µM
CNC(=O)[C@@H](C)NC(=O)c1ccc(-c2ccc(C)o2)s1	278 µM	297 µM
CNS(=O)(=O)c1ccc(NCc2ccco2)cc1OC	245 µM	437 µM
CCC1CN(S(C)(=O)=O)c2ccccc2O1 (stereo not drawn)	> 501 µM	164 µM
Cn1c(=O)c2c(nc(Cl)n2CCCC#N)n(C)c1=O	> 501 µM	> 501 µM
O=C(NCC(O)C1CCCCC1)[C@@H](O)c1ccccc1 (stereo partly drawn)	189 µM	86.1 µM
CCc1ccc(CN2CCN(C(=O)N(C)C)CC2)o1	> 501 µM	206 µM
COC(=O)CCCNc1ccc2c(c1)OCCO2	467 µM	140 µM
c1ccc(CN2CCCN(c3ccccn3)CC2)nc1	236 µM	196 µM
COCCNc1nc(-c2ccc(S(N)(=O)=O)cc2)cs1	> 501 µM	207 µM
NC(=O)Nc1cccc(C(=O)Nc2ccc(Cl)cn2)c1	132 µM	126 µM
CCN1CCN(c2ccccc2O)CC1	189 µM	210 µM
Cc1cccc(NCC(=O)NC2CCCCC2)n1	148 µM	152 µM

SMILES	IC50 [1]	IC50 [2]
COCCSCc1cccc(NC(=O)C(C)N)c1 (stereo not drawn)	> 501 µM	119 µM
CN(CCOc1ccc(Cl)cc1)C(=O)C(C)(C)CN	276 µM	216 µM
Cc1noc(NC(=O)c2ccc(C(F)(F)F)nc2C)n1	151 µM	164 µM
CC(NS(=O)(=O)N(C)C1CCCCC1)c1ccccn1 (stereo not drawn)	159 µM	75.6 µM
CN1CCN(C(=O)c2cnsn2)c2ccccc21	> 501 µM	> 501 µM
Cc1cc(C(=O)N2CCC(C(N)=O)C2)cc(Cl)c1Br (stereo not drawn)	262 µM	180 µM
CN(C)S(=O)(=O)c1ccc(COC(=O)C2CC2)o1	338 µM	> 501 µM
CN(Cc1ccc(N)nc1)c1ccc(C#N)cn1	> 501 µM	> 501 µM
N#CC1(C(=O)NCc2ccccc2F)CC1	> 501 µM	> 501 µM
COc1ccccc1N1CCC(N)C1 (stereo not drawn)	64.3 µM	30.5 µM
NCCCNS(=O)(=O)c1ccc(Br)c(F)c1	> 501 µM	189 µM
NS(=O)(=O)N1CCN(CCCc2cccc(F)c2)CC1	> 501 µM	> 501 µM
COCCOCCn1nc(C)c(C#N)c1N	> 501 µM	> 501 µM
CN(C)c1cc(CN)c2ccccc2n1	132 µM	97.3 µM
NCc1cc(Cl)ccn1	301 µM	156 µM
O=C(c1cc(C2CC2)on1)N1CC(O)(C2CC2)C1	44.5 µM	47.3 µM
CCn1nc(C)cc1C(=O)Nc1ccnc(N(C)C)n1	> 501 µM	96.2 µM
O=C(NCCn1cccc1)c1ccc(Cl)cn1	52.9 µM	57.9 µM
O=C(c1cccc2cn[nH]c12)N1CCCC1CO (stereo not drawn)	> 501 µM	> 501 µM
NS(=O)(=O)N1CCN(CC=Cc2ccc(F)cc2)CC1	> 501 µM	233 µM
NC1CCCN(S(=O)(=O)C=Cc2cccc(Cl)c2)C1 (stereo not drawn)	257 µM	216 µM
